Target: T1, human Edg-1 receptor (Homo sapiens, UniProt P21453)
T1 construct: FLAG (N); expressed in transfected cells; membrane preparation
Experiment: GTP-γ-S assay using human Edg-1 receptors (SPA, CHO Flp-In cell membrane preparation)
Type: biochemical
Conditions: test compound at 10 μM; high control 10 μM S1P regarded as 100% activation; background-corrected; triplicate; read-out: % Activation (Edg-1 receptor activation in percent of the activation by 10 μM S1P)
Method in brief: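 Membranes from CHO Flp-In cells stably overexpressing N-terminally FLAG-tagged human Edg-1 were used in a scintillation-proximity GTP-γ-S binding assay to measure receptor activation by compounds.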

T1 sequence (P21453 whole entry): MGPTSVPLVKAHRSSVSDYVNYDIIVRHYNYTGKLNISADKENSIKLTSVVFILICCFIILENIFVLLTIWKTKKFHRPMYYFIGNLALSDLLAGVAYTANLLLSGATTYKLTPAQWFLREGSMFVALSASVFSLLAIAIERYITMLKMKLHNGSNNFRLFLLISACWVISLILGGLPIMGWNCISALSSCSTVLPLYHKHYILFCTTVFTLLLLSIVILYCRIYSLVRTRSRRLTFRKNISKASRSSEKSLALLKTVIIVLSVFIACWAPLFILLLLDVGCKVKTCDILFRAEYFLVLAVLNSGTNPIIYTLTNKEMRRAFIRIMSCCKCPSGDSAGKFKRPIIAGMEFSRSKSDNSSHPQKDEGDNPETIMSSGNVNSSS

| Structure (SMILES) | activation at 10 µM [%] |
| --- | --- |
| CCCOc1nc(Sc2nccs2)nc2oc(-c3cc(F)ccc3Cl)nc12 [Example 59, 2-(2-chloro-5-fluoro-phenyl)-7-propoxy-5-(thiazol-2-ylsulfanyl)-oxazolo[5,4-d]pyrimidine] | 103 |
| Cc1cc(-c2nc3c(OC4COC4)nc(Oc4ccccc4F)nc3o2)cc(C)c1OC1COC1 [Example 49, 2-[3,5-dimethyl-4-(oxetan-3-yloxy)-phenyl]-5-(2-fluoro-phenoxy)-7-(oxetan-3-yloxy)-oxazolo[5,4-d]pyrimidine] | 123 |
| CCCOc1nc(Oc2cc(C)nn2C)nc2oc(-c3cccc(C)c3)nc12 [Example 25, 5-(2,5-dimethyl-2H-pyrazol-3-yloxy)-7-propoxy-2-(3-methyl-phenyl)-oxazolo[5,4-d]pyrimidine] | 110 |
| CCCOc1nc(Oc2ccccc2)nc2oc(-c3cccc(F)c3)nc12 [Example 61, 2-(3-fluoro-phenyl)-5-phenoxy-7-propoxy-oxazolo[5,4-d]pyrimidine] | 74 |
| CCCOc1nc(Oc2ccc(C)nn2)nc2oc(-c3cccc(F)c3)nc12 [Example 18, 2-(3-fluoro-phenyl)-5-(6-methyl-pyridazin-3-yloxy)-7-propoxy-oxazolo[5,4-d]pyrimidine] | 42 |
| C=CCCCOc1nc(OCC2CC2)c2nc(-c3cccc(C)c3)oc2n1 [Example 16, 7-cyclopropylmethoxy-5-pent-4-enyloxy-2-(3-methyl-phenyl)-oxazolo[5,4-d]pyrimidine] | 83 |
| CCCOc1nc(SC2CCS(=O)(=O)C2)nc2oc(-c3cccc(F)c3)nc12 (stereo not drawn) [Example 14, 5-(1,1-dioxo-tetrahydro-1lambda6-thiophen-3-ylsulfanyl)-2-(3-fluoro-phenyl)-7-propoxy-oxazolo[5,4-d]pyrimidine] | 72 |
| CCCOc1nc(Oc2ccc(Cl)c(Cl)c2)nc2oc(-c3cccc(C)c3)nc12 [Example 1, 5-(3,4-Dichloro-phenoxy)-7-propoxy-2-(3-methyl-phenyl)-oxazolo[5,4-d]pyrimidine] | 62 |
| CCOc1nc(Oc2cccc(S(N)(=O)=O)c2)nc2oc(-c3cccc(C)c3)nc12 [Example 22, 3-(7-ethoxy-2-(3-methyl-phenyl)-oxazolo[5,4-d]pyrimidin-5-yloxy)-benzenesulfonamide] | 100 |
| COc1c(C)cc(-c2nc3c(OC4COC4)nc(Oc4ccccc4F)nc3o2)cc1C [Example 8, 5-(2-Fluoro-phenoxy)-2-(4-methoxy-3,5-dimethyl-phenyl)-7-(oxetan-3-yloxy)-oxazolo[5,4-d]pyrimidine] | 124 |
| Cc1cccc(-c2nc3c(OCC4CC4)nc(Oc4ccccc4F)nc3o2)c1 [Example 29, 7-cyclopropylmethoxy-5-(2-fluoro-phenoxy)-2-(3-methyl-phenyl)-oxazolo[5,4-d]pyrimidine] | 109 |
| CCCOc1nc(Oc2cc(C)nn2C)nc2oc(-c3cccc(F)c3)nc12 [Example 24, 5-(2,5-dimethyl-2H-pyrazol-3-yloxy)-2-(3-fluoro-phenyl)-7-propoxy-oxazolo[5,4-d]pyrimidine] | 99 |
| Cc1cccc(-c2nc3c(OCC4CC4)nc(OCC4COC(C)(C)O4)nc3o2)c1 (stereo not drawn) [Example 36, 7-cyclopropylmethoxy-5-(2,2-dimethyl-[1,3]dioxolan-4-ylmethoxy)-2-(3-methyl-phenyl)-oxazolo[5,4-d]pyrimidine] | 78 |
| CCOc1nc(Oc2cc(C)nn2C)nc2oc(-c3cccc(C)c3)nc12 [Example 26, 5-(2,5-dimethyl-2H-pyrazol-3-yloxy)-7-ethoxy-2-(3-methyl-phenyl)-oxazolo[5,4-d]pyrimidine] | 101 |
| CCCOc1nc(O[C@H]2CCCC[C@@H]2F)nc2oc(-c3cccc(F)c3)nc12 [Example 48, 5-((1S,2S)-2-fluoro-cyclohexyloxy)-2-(3-fluoro-phenyl)-7-propoxy-oxazolo[5,4-d]pyrimidine] | 105 |
| CCCOc1nc(Sc2nccs2)nc2oc(-c3cccc(C)c3)nc12 [Example 4] | 93 |
| Fc1cccc(-c2nc3c(OCC4CC4)nc(Oc4ccccc4F)nc3o2)c1 [Example 32, 7-cyclopropylmethoxy-5-(2-fluoro-phenoxy)-2-(3-fluoro-phenyl)-oxazolo[5,4-d]pyrimidine] | 61 |

Now from value to molecule:

| activation at 10 µM [%] | Structure (SMILES) |
| --- | --- |
| 52 | CCCOc1nc(Oc2cc(C(F)(F)F)ccc2Cl)nc2oc(-c3cccc(C)c3)nc12 [Example 143, 5-(2-chloro-5-trifluoromethyl-phenoxy)-7-propoxy-2-(3-methyl-phenyl)-oxazolo[5,4-d]pyrimidine] |
| 46 | CCCOc1nc(OCC2(C)COC2)nc2oc(-c3cc(F)ccc3Cl)nc12 [Example 152, 2-(2-chloro-5-fluoro-phenyl)-5-(3-methyl-oxetan-3-ylmethoxy)-7-propoxy-oxazolo[5,4-d]pyrimidine] |
| 126 | CCCOc1ccccc1Oc1nc(OCCC)c2nc(-c3cccc(C)c3)oc2n1 [Example 146, 7-propoxy-5-(2-propoxy-phenoxy)-2-(3-methyl-phenyl)-oxazolo[5,4-d]pyrimidine] |
| 107 | CCCOc1nc(Oc2cccc(C)c2)nc2oc(-c3cccc(C)c3)nc12 [Example 98, 7-propoxy-2-(3-methyl-phenyl)-5-(3-methyl-phenyl)oxy-oxazolo[5,4-d]pyrimidine] |
| 109 | CCCOc1nc(NC2CCC(F)(F)CC2)nc2oc(-c3cc(F)ccc3Cl)nc12 [Example 64, [2-(2-chloro-5-fluoro-phenyl)-7-propoxy-oxazolo[5,4-d]pyrimidin-5-yl]-(4,4-difluoro-cyclohexyl)-amine] |
| 106 | CCCOc1nc(Oc2cc(Cl)ccc2C)nc2oc(-c3cc(F)ccc3Cl)nc12 [Example 66, 2-(2-chloro-5-fluoro-phenyl)-5-(5-chloro-2-methyl-phenoxy)-7-propoxy-oxazolo[5,4-d]pyrimidine] |
| 81 | CCCOc1nc(Oc2ccccn2)nc2oc(-c3cccc(C)c3)nc12 [Example 76, 7-propoxy-5-(pyridin-2-yloxy)-2-(3-methyl-phenyl)-oxazolo[5,4-d]pyrimidine] |
| 46 | CCCOc1nc(Oc2ccc(SC(F)(F)F)cc2)nc2oc(-c3cccc(C)c3)nc12 [Example 112, 7-propoxy-2-(3-methyl-phenyl)-5-(4-trifluoromethylsulfanyl-phenoxy)-oxazolo[5,4-d]pyrimidine] |
| 69 | Fc1ccccc1Oc1nc(OCC2CC2)c2nc(-c3ccc(Cl)c(Cl)c3)oc2n1 [Example 158, 7-cyclopropylmethoxy-2-(3,4-dichloro-phenyl)-5-(2-fluoro-phenoxy)-oxazolo[5,4-d]pyrimidine] |
| 41 | CCCOc1nc(Oc2cccc(SC(F)(F)F)c2)nc2oc(-c3cc(F)ccc3Cl)nc12 [Example 68, 2-(2-chloro-5-fluoro-phenyl)-7-propoxy-5-(3-trifluoromethylsulfanyl-phenoxy)-oxazolo[5,4-d]pyrimidine] |
| 92 | CCCOc1nc(Oc2cc(F)ccc2C)nc2oc(-c3ccc(Cl)c(Cl)c3)nc12 [Example 157, 2-(3,4-dichloro-phenyl)-5-(5-fluoro-2-methyl-phenoxy)-7-propoxy-oxazolo[5,4-d]pyrimidine] |
| 46 | CCCOc1nc(OC2CCCCC2)nc2oc(-c3cc(F)ccc3Cl)nc12 [Example 80, 2-(2-chloro-5-fluoro-phenyl)-5-cyclohexyloxy-7-propoxy-oxazolo[5,4-d]pyrimidine] |
| 66 | CCCOc1nc(Sc2cc(C)oc2C)nc2oc(-c3cc(F)ccc3Cl)nc12 [Example 151, 2-(2-chloro-5-fluoro-phenyl)-5-(2,5-dimethyl-furan-3-ylsulfanyl)-7-propoxy-oxazolo[5,4-d]pyrimidine] |
| 95 | CCCOc1nc(Oc2cncc(F)c2)nc2oc(-c3cc(F)ccc3Cl)nc12 [Example 72, 2-(2-chloro-5-fluoro-phenyl)-5-(5-fluoro-pyridin-3-yloxy)-7-propoxy-oxazolo[5,4-d]pyrimidine] |
| 55 | Cc1ccc(F)cc1Oc1nc(OCC2CC2)c2nc(-c3ccc(Cl)c(Cl)c3)oc2n1 [Example 159, 7-cyclopropylmethoxy-2-(3,4-dichloro-phenyl)-5-(5-fluoro-2-methyl-phenoxy)-oxazolo[5,4-d]pyrimidine] |
| 80 | Clc1ccc(-c2nc3c(OCC4CC4)nc(Oc4ccccc4)nc3o2)cc1Cl [Example 110, 7-cyclopropylmethoxy-2-(3,4-dichloro-phenyl)-5-phenoxy-oxazolo[5,4-d]pyrimidine] |
| 88 | CCCOc1nc(Oc2ccc(C)cc2F)nc2oc(-c3cccc(C)c3)nc12 [Example 111, 5-(2-fluoro-4-methyl-phenoxy)-7-propoxy-2-(3-methyl-phenyl)-oxazolo[5,4-d]pyrimidine] |
| 107 | CCCOc1nc(Oc2ccc(F)c(C)c2)nc2oc(-c3cccc(C)c3)nc12 [Example 130, 5-(4-fluoro-3-methyl-phenoxy)-7-propoxy-2-(3-methyl-phenyl)-oxazolo[5,4-d]pyrimidine] |
| 91 | CCCOc1nc(Oc2ccc(F)cc2OC)nc2oc(-c3cccc(C)c3)nc12 [Example 99, 5-(4-fluoro-2-methoxy-phenoxy)-7-propoxy-2-(3-methyl-phenyl)-oxazolo[5,4-d]pyrimidine] |
| 111 | CCCOc1nc(Oc2cccnc2)nc2oc(-c3cccc(C)c3)nc12 [Example 77, 7-propoxy-5-(pyridin-3-yloxy)-2-(3-methyl-phenyl)-oxazolo[5,4-d]pyrimidine] |
| 85 | CCCOc1nc(Oc2ccc(F)c(C(F)(F)F)c2)nc2oc(-c3cccc(C)c3)nc12 [Example 129, 5-(4-fluoro-3-trifluoromethyl-phenoxy)-7-propoxy-2-(3-methyl-phenyl)-oxazolo[5,4-d]pyrimidine] |
| 117 | Clc1ccc(-c2nc3c(OCC4CC4)nc(Oc4cccnc4)nc3o2)cc1Cl [Example 106, 7-cyclopropylmethoxy-2-(3,4-dichloro-phenyl)-5-(pyridin-3-yloxy)-oxazolo[5,4-d]pyrimidine] |

Reference: patent US8785439B2, “2,5,7-substituted oxazolopyrimidine derivatives” (Sanofi, priority 2010, dated 2014)
